Results on 8 compounds are retold here after patent publication US7879315B2, “Agent for dissolving dental calculi and dental caries” (Showa Yakuhin Kako Co., Ltd., priority 2002, dated 2011).

The nature of this test: Dissolution of dental calculus by immersion (weight after treatment).

`O=C(O)CO` [glycolic acid]: the “weight of dental calculus after the treatment” value (“weight of dental calculus” for short) (0.9 mg calculus immersed 9 minutes in 1 ml of 10% aqueous solution) was 0.5 mg. Take `O=C(O)CC(O)(CC(=O)O)C(=O)O` [citric acid]: the “weight of dental calculus” value (1.3 mg calculus immersed 13 minutes in 1 ml of 10% aqueous solution) is 0.65 mg. With `O=C(O)CC(O)C(=O)O` (stereo not shown) [malic acid], the “weight of dental calculus” value (1.2 mg calculus immersed 13 minutes in 1 ml of 10% aqueous solution) was 0.6 mg. Regarding `O=P(O)(O)OP(=O)(O)O` [pyrophosphoric acid], for the setting “2.2 mg calculus immersed 7 minutes in 1 ml of 10% aqueous solution”, the “weight of dental calculus” value is given as 1.1 mg. For `O=C([O-])CN(CCN(CC(=O)[O-])CC(=O)O)CC(=O)O.[Na+].[Na+]` [disodium edetate], under “0.50 mg calculus immersed 44 minutes in 1 ml of 14.3% solution”, the “weight of dental calculus” value is 0.25 mg.

Consider polyphosphoric acid, for which the “weight of dental calculus” value (1.5 mg calculus immersed 7 minutes and 30 seconds in 1 ml of 10% aqueous solution) is 0.7 mg. Consider `O=P(O)(O)O[C@H]1[C@H](OP(=O)(O)O)[C@@H](OP(=O)(O)O)[C@H](OP(=O)(O)O)[C@@H](OP(=O)(O)O)[C@H]1OP(=O)(O)O` [phytic acid], for which the “weight of dental calculus” value reads like this: (3.0 mg calculus immersed 5 minutes in 1 ml aqueous solution containing 0.5 g phytic acid (15% aqueous solution)) 2.6 mg; (3.0 mg calculus immersed 10 minutes in 1 ml aqueous solution containing 0.5 g phytic acid (15% aqueous solution)) 2.1 mg. Take `O=P(O)(O)O` [phosphoric acid]: the “weight of dental calculus” value reads like this: (1.2 mg calculus immersed 7 minutes and 30 seconds in 1 ml of 10% aqueous solution) 0.6 mg; (1.4 mg calculus immersed 8 minutes and 30 seconds in 1 ml of 2% aqueous solution) 0.7 mg.
